Data from patent US20100028872A1, “Methods for the Detection of Cancer” (priority 2006, published 2010).

Tests used:
[1] = test system: SW48 colorectal tumor cell line; assay: 5Aza-dC dose optimisation: re-expression of silenced tumor suppressor genes on the expression array; type: cell-based; conditions: 5 μM 5Aza-dC for at least two cell doubling times, with TSA (500 nM)
Text: To determine the optimal 5Aza-dC dosage for robust detection of transcriptional reactivation on the microarray without excessive toxicity to the treated cells, the re-expression of 5 tumor suppressor genes, p16^INK4a, MLH1, MGMT, RARβ, and Timp-3, was examined at different doses of 5Aza-dC. The five TSG are well characterized as hypermethylated with associated silencing in the SW48 colorectal tumor cell line, which has a similar cell doubling time to the RCC lines (Wheeler et al. (1999) Proc. Natl. Acad. Sci., 96:10296-301; Esteller et al. (1999) Cancer Res., 59:793-97; Paz et al. (2003) Cancer Res., 63:1114-21; Herman et al. (1995) Cancer Res., 55:4525-30; Bachman et al. (1999) Cancer Res., 59:798-802). RNA was extracted from SW48 cell cultures after treatment with 1, 5, or 10 μM 5Aza-dC and TSA (500 nM). RT-PCR was then performed and the product labeled and hybridized to the expression array. […] The 5Aza-dC treatment was combined with TSA because there is good evidence that the processes of methylation and deacetylation interact to silence transcription, although TSA may have less synergistic effect at the relatively higher 5 μM 5Aza-dC dose employed than when combined with lower doses of 5Aza-dC (Cameron et al. (1999) Nat. Genet., 21:103-7; Wade et al. (2001) Oncogene, 20:3166-73). […]

[2] = test system: 786-0 clear cell renal tumor line; assay: Expression microarray of genes upregulated after 5Aza-dC and TSA treatment; type: cell-based, human; conditions: 5 μM 5Aza-dC and 500 nM TSA, 14,802 gene microarray
Description: (§1) 5Aza-dC (Sigma, St. Louis, Mo.) was dissolved in phosphate buffered saline (PBS) as a 5 mM stock solution, and stored in aliquots at −80° C. TSA (Wako, Richmond, Va.) was dissolved in absolute ethanol as a 330 μM stock solution, and stored at −20° C. The 4 renal cell lines were split to low density and exposed to 5Aza-dC at a final concentration of 5 μM, again 24 hours after the beginning of treatment and, if necessary, further treatment until the cells had undergone at least 2 doublings. The cells were also treated with TSA at a final concentration of 500 nM during the 24 hours prior to harvest for RNA extraction. Untreated (mock) cells were cultured over an identical period of time with an equivalent volume of PBS and, for the final 24 hours, with an equivalent volume of EtOH.
(§2) Total RNA was isolated from drug-treated and untreated cultured cells using TRIZOL reagent (Invitrogen, Carlsbad, Calif.) and purified with the RNAeasy Mini Kit (Quiagen, Valencia, Calif.) combined with DNAase treatment. The RNA quality was confirmed by the ratio of 28S and 18S ribosomal RNA after agarose gel electrophoresis. Twenty μg of total RNA was reverse transcribed using oligo (dT)24 primer and Superscript II reverse transcriptase (Invitrogen, Carlsbad, Calif.) for 1.5 hours at 42° C.
(§3) For each cell line, both treated and untreated cDNA was labeled with Cy3 or Cy5 (Amersham Biosciences, Piscataway, N.J.) and then hybridized to separate human 15k oligoarrays (MWG-Biotech Inc, High Point, N.C.) according to the manufacturer's recommendation for 18 hours at 42° C. The microarrays were processed and spotted in the DNA Microarray Facility at FCCC. The Gene list, Gene ID and Template files can be viewed at research.fccc.edu/facilities/microarray. In addition, microarray hybridization was performed with the opposite labels (dye flip) from each cell line. The hybridized slides were scanned using a GMS 428 Scanner (Affymetrix, Santa Clara, Calif.) to generate high-resolution images for both Cy3 and Cy5 channels. Image analysis was performed using the ImaGene software (BioDiscovery, Inc, El Segundo, Calif.).
(§4) The genes corresponding to each oligonucleotide spotted on the array were identified using an optimized segmentation algorithm. […] Data were analyzed using the GeneSight software (BioDiscovery, Inc, El Segundo, Calif.) which includes background subtraction, data normalization (Lowess transformation), calculation of ratios, and statistical analysis of replicate spots and slides.
(§5) Up-regulation of the 14,802 gene microarray was analyzed in 4 RCC lines treated with 5 μM of 5Aza-dC and 500 nM of TSA. […] The promoter region of each gene was also analyzed for the presence of a CpG island with the characteristics described by Takai and Jones (Takai et al. (2002) Proc. Natl. Acad. Sci., 99:3740-5). […]

[3] = test system: HRC51 clear cell renal tumor cell line; assay: as above; type: cell-based, human; conditions: 5 μM 5Aza-dC and 500 nM TSA, 14,802 gene microarray
Description: as §1, §2, §3, §4, §5

[4] = test system: ACHN papillary renal tumor cell line; assay: as above; type: cell-based, human; conditions: 5 μM 5Aza-dC and 500 nM TSA, 14,802 gene microarray
Description: as §1, §2, §3, §4, §5

[5] = test system: HRC59 papillary renal tumor cell line; assay: as above; type: cell-based, human; conditions: 5 μM 5Aza-dC and 500 nM TSA, 14,802 gene microarray
Description: as §1, §2, §3, §4, §5

Nc1ncn([C@H]2C[C@H](O)[C@@H](CO)O2)c(=O)n1 [5Aza-dC, 5Aza-2deoxycytidine]
toxicity as assessed by comparison of cell morphology and cell death between control and treated cells [1]: minimal toxicity | re-expression of 5 tumor suppressor genes (p16INK4a, MLH1, MGMT, RARβ, Timp-3) ([1]; SW48 cells): re-expression of the 5 TSG | genes upregulated at least 3-fold compared to the untreated cells [2]: 170 genes | genes upregulated at least 3-fold compared to the untreated cells [3]: 112 genes | genes upregulated at least 3-fold compared to the untreated cells [4]: 111 genes | genes upregulated at least 3-fold compared to the untreated cells [5]: 178 genes
